pIC50: −log10 of the molar value.
How the values were obtained:
EBC-1 = experiment: cells; conditions: Homo sapiens, EBC-1, 72 h
Description: Antiproliferative activity against human EBC-1 cells incubated for 3 days by MTT assay

HT-29 = experiment: cells; conditions: Homo sapiens, HT-29, 72 h
Description: Antiproliferative activity against human HT-29 cells incubated for 3 days by MTT assay

A549 = experiment: cells; conditions: Homo sapiens, A549, 72 h
Description: Antiproliferative activity against human A549 cells incubated for 3 days by MTT assay

K562 [1] = experiment: cells; conditions: Homo sapiens, K562, 72 h
Description: Antiproliferative activity against human K562 cells incubated for 3 days by MTT assay

[2] = molecular target: Vascular endothelial growth factor receptor 2 (Homo sapiens) (UniProt P35968); experiment: Inhibition of KDR (unknown origin) at 10 uM by radiometric assay relative to control
K562 [3] = experiment: Induction of cell cycle arrest in human K562 cells assessed as accumulation at G0/G1 phase at 50 uM incubated for 48 hrs by Rnase/PI staining based flow cytometry (reference value: 57.34 +/- 3.14); format: functional
K562 [4] = experiment: Induction of cell cycle arrest in human K562 cells assessed as accumulation at G2/M phase at 10 uM incubated for 48 hrs by Rnase/PI staining based flow cytometry (reference value: 23.78 +/- 6.09); format: functional
[5] = molecular target: Mast/stem cell growth factor receptor Kit (Homo sapiens) (UniProt P10721); experiment: Inhibition of KIT (unknown origin) at 10 uM by radiometric assay relative to control
[6] = molecular target: Platelet-derived growth factor receptor beta (Homo sapiens) (UniProt P09619); experiment: Inhibition of PDGFRB (unknown origin) at 10 uM by radiometric assay relative to control
[7] = tested on: T1, Receptor-type tyrosine-protein kinase FLT3 (Homo sapiens), P36888 [D835Y]; experiment: Inhibition of human FLT3 D835Y mutant at 25 uM by radiometric assay relative to control
T1 sequence (whole entry): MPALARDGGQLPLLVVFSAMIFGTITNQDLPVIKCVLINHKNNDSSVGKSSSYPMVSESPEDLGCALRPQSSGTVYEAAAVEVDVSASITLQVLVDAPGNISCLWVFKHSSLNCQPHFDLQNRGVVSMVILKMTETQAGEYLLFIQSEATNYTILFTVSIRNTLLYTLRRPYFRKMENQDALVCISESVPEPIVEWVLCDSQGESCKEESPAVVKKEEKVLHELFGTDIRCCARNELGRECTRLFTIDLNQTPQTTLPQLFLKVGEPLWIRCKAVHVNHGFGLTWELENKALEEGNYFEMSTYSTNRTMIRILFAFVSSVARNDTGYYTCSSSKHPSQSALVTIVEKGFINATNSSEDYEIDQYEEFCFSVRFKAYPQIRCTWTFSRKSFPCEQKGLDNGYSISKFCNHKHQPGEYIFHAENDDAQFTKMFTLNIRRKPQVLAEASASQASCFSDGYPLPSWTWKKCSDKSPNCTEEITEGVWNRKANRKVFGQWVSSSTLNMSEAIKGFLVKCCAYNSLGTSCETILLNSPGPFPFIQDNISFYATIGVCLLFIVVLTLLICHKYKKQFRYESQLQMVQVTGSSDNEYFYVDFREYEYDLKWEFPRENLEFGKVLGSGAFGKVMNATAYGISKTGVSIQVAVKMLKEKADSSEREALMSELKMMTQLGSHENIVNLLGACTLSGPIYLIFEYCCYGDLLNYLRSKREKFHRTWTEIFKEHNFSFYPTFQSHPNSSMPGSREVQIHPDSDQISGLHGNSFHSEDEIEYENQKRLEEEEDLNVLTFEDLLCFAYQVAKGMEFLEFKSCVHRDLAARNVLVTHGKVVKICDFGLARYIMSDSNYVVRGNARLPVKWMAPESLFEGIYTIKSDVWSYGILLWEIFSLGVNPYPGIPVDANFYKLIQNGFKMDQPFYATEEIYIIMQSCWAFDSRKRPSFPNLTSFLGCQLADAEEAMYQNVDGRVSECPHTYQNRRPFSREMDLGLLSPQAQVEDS

[8] = molecular target: Dual specificity mitogen-activated protein kinase kinase 1 (Homo sapiens) (UniProt Q02750); experiment: Inhibition of MAP2K1 (unknown origin) at 10 uM by radiometric assay relative to control
[9] = molecular target: Receptor-type tyrosine-protein kinase FLT3 (Homo sapiens) (UniProt P36888); experiment: Inhibition of human FLT3 at 25 uM by radiometric assay relative to control
[10] = molecular target: Mitogen-activated protein kinase 3 (Homo sapiens) (UniProt P27361); experiment: Inhibition of MAPK3 (unknown origin) at 10 uM by radiometric assay relative to control
K562 [11] = experiment: Induction of cell cycle arrest in human K562 cells assessed as accumulation at G2/M phase at 50 uM incubated for 48 hrs by Rnase/PI staining based flow cytometry (reference value: 23.78 +/- 6.09); format: functional
K562 [12] = experiment: Induction of cell cycle arrest in human K562 cells assessed as accumulation at G0/G1 phase at 10 uM incubated for 48 hrs by Rnase/PI staining based flow cytometry (reference value: 57.34 +/- 3.14); format: functional
K562 [13] = experiment: Induction of cell cycle arrest in human K562 cells assessed as accumulation at S phase at 10 uM incubated for 48 hrs by Rnase/PI staining based flow cytometry (reference value: 17.95 +/- 3.42); format: functional
K562 [14] = experiment: Induction of cell cycle arrest in human K562 cells assessed as accumulation at sub G1 phase at 50 uM incubated for 48 hrs by Rnase/PI staining based flow cytometry (reference value: 0.92 +/- 0.12); format: functional
K562 [15] = experiment: Induction of cell cycle arrest in human K562 cells assessed as accumulation at sub G1 phase at 10 uM incubated for 48 hrs by Rnase/PI staining based flow cytometry (reference value: 0.92 +/- 0.12); format: functional
[16] = molecular target: Receptor-type tyrosine-protein kinase FLT3 (Homo sapiens) (UniProt P36888); experiment: Inhibition of human FLT3 at 10 uM by radiometric assay relative to control
[17] = molecular target: Macrophage-stimulating protein receptor (Homo sapiens) (UniProt Q04912); experiment: Inhibition of MST1R (unknown origin) at 10 uM by radiometric assay relative to control
K562 [18] = experiment: Induction of cell cycle arrest in human K562 cells assessed as accumulation at S phase at 50 uM incubated for 48 hrs by Rnase/PI staining based flow cytometry (reference value: 17.95 +/- 3.42); format: functional
[19] = molecular target: Hepatocyte growth factor receptor (Homo sapiens) (UniProt P08581); experiment: Inhibition of MET (unknown origin) at 10 uM by radiometric assay relative to control
[20] = molecular target: Platelet-derived growth factor receptor alpha (Homo sapiens) (UniProt P16234); experiment: Inhibition of PDGFRA (unknown origin) at 10 uM by radiometric assay relative to control
[21] = tested on: T1, Receptor-type tyrosine-protein kinase FLT3 (Homo sapiens), P36888 [D835Y]; experiment: Inhibition of human FLT3 D835Y mutant at 10 uM by radiometric assay relative to control

Sequence of Dual specificity mitogen-activated protein kinase kinase 1 (Homo sapiens) (Q02750 whole entry): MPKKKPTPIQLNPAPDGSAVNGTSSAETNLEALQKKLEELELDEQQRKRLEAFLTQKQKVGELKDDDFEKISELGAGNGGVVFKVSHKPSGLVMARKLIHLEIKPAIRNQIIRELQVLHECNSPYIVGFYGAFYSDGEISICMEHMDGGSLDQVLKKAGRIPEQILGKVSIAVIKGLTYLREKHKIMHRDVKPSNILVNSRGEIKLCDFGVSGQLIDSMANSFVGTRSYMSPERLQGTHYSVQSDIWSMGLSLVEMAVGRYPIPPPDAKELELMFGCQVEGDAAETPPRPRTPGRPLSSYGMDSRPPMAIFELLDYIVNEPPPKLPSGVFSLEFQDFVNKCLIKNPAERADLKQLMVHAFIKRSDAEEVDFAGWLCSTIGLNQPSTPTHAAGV
Sequence of Mast/stem cell growth factor receptor Kit (Homo sapiens) (P10721 whole entry): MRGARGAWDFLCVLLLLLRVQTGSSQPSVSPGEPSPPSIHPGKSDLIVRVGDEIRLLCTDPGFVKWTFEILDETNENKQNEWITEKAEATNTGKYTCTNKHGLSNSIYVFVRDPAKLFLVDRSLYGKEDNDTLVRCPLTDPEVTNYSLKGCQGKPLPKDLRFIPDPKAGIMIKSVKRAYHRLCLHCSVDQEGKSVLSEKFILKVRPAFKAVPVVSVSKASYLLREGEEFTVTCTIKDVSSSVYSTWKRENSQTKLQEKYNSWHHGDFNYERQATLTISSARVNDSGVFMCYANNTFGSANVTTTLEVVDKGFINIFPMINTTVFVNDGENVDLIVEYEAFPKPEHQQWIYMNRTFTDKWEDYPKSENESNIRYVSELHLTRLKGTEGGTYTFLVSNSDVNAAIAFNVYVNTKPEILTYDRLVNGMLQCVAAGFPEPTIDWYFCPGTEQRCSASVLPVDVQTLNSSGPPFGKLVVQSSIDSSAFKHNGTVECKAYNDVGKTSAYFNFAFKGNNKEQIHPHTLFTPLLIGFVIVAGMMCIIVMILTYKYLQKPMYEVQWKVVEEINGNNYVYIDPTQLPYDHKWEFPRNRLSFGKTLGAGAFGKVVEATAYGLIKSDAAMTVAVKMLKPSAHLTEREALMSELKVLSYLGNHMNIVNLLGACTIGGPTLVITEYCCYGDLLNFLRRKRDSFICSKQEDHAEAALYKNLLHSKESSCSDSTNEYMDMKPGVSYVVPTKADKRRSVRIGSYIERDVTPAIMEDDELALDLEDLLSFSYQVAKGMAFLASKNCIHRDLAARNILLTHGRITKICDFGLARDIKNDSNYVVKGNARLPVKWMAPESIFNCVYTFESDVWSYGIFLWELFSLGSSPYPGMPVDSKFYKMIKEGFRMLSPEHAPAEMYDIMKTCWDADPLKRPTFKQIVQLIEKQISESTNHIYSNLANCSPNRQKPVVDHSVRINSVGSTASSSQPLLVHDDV
Sequence of Platelet-derived growth factor receptor alpha (Homo sapiens) (P16234 whole entry): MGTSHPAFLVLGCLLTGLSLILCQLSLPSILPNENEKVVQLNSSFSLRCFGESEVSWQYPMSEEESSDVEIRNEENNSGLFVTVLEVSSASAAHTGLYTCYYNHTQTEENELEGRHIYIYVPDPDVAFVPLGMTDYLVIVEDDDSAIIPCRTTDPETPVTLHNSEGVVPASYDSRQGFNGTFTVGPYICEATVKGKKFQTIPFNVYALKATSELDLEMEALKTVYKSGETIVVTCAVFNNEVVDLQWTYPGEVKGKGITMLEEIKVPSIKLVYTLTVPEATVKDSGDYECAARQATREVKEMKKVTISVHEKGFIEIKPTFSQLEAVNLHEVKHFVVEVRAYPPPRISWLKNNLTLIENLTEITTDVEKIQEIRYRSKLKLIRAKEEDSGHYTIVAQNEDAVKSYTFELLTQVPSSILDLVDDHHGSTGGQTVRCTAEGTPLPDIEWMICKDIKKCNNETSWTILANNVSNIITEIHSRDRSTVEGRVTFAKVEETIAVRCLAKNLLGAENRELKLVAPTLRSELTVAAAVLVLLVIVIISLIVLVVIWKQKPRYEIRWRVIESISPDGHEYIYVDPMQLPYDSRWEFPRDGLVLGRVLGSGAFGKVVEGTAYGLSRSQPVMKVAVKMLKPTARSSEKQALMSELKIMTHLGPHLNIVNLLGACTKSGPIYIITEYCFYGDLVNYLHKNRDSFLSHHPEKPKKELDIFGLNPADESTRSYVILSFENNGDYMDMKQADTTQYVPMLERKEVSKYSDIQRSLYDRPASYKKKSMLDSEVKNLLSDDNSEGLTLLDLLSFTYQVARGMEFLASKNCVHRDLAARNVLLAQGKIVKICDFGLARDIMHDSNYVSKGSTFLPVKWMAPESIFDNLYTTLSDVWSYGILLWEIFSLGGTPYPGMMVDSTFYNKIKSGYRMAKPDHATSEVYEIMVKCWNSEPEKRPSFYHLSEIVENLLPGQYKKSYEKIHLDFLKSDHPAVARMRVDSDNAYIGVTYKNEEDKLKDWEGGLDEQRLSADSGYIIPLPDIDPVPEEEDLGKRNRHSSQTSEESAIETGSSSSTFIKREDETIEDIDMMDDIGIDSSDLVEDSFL
Sequence of Macrophage-stimulating protein receptor (Homo sapiens) (Q04912 25-304 limits assumed): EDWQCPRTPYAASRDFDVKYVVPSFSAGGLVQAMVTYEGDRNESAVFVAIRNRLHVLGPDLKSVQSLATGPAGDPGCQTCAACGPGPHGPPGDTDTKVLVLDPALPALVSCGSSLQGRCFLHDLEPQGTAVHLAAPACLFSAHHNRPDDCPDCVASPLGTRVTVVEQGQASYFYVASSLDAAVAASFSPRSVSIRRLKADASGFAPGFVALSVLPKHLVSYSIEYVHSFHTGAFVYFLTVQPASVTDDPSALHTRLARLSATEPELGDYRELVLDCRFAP
Sequence of Macrophage-stimulating protein receptor (Homo sapiens) (Q04912 310-1400 limits assumed): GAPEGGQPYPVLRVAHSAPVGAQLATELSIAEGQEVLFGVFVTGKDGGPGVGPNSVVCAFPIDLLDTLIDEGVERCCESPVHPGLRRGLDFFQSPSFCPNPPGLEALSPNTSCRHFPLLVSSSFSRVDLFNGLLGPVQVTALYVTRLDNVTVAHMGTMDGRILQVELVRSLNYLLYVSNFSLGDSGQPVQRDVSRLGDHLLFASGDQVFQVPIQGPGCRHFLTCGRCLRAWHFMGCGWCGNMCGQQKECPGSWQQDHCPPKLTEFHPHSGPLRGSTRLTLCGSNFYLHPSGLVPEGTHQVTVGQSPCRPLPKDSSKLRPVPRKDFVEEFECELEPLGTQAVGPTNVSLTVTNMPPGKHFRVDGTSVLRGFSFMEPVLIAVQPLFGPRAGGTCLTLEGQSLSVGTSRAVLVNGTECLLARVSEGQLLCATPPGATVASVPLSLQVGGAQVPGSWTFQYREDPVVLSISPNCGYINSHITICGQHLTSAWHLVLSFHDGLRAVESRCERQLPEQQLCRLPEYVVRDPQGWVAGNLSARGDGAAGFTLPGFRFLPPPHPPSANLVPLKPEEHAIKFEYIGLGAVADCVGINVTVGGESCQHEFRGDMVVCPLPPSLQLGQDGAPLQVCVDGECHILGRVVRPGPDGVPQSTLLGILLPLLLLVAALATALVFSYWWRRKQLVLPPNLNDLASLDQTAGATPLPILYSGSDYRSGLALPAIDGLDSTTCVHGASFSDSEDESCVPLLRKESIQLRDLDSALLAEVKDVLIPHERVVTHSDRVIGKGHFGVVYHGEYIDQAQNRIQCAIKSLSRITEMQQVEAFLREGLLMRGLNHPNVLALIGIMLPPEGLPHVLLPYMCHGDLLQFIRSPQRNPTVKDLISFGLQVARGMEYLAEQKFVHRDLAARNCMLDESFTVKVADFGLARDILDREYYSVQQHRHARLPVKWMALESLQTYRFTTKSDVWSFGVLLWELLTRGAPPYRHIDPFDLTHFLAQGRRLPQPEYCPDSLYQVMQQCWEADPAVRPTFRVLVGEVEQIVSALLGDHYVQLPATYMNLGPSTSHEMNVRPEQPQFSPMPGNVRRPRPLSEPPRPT
Sequence of Mitogen-activated protein kinase 3 (Homo sapiens) (P27361 whole entry): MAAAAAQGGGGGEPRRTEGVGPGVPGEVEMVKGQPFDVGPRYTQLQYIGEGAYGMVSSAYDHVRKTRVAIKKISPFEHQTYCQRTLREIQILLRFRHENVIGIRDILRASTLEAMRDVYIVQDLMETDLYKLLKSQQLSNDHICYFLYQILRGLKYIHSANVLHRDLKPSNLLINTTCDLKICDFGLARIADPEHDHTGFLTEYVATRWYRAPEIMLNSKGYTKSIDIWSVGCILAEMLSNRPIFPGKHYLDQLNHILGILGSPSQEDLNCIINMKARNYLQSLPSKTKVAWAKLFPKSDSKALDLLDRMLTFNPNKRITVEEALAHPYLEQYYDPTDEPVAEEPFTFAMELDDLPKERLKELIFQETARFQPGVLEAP

Compound | pIC50 (EBC-1) | pIC50 (HT-29) | pIC50 (A549) | pIC50 (K562 [1]) | further results
CCCCCN1C(=O)C2(NC(=O)c3ccccc3N2)c2ccccc21 (centres undefined) | < 4.00 | < 4.00 | < 4.00 | < 4.00 | –
Cc1ccc(CN2C(=O)C3(NC(=O)c4ccccc4N3)c3ccccc32)cc1 (centres undefined) | 4.69 | 4.53 | 4.58 | – | –
O=C1NC2(Nc3c(Br)cc(Br)cc31)C(=O)N(Cc1ccc(Cl)cc1)c1ccccc12 (centres undefined) | 4.98 | 4.90 | 4.57 | 4.86 | inhibition [2]: 12%; Activity (K562 [3]): 50.3%; Activity (K562 [4]): 23.78%; inhibition [5]: 1%; inhibition [6]: -1%; inhibition [7]: -6%; inhibition [8]: -6%; inhibition [9]: 19%; inhibition [10]: -4%; Activity (K562 [11]): 27.23%; Activity (K562 [12]): 57.29%; Activity (K562 [13]): 17.89%; Activity (K562 [14]): 1.41%; Activity (K562 [15]): 1.04%; inhibition [16]: 18%; inhibition [17]: 2%; Activity (K562 [18]): 21.06%; inhibition [19]: 12%; inhibition [20]: 5%; inhibition [21]: 5%
COc1cc2nccc(Oc3ccc(NC(=O)C4(C(=O)Nc5ccc(F)cc5)CC4)cc3)c2cc1OC [CABOZANTINIB] | 7.23 | 5.43 | 4.79 | 5.72 | –
CCN1C(=O)C2(NC(=O)c3ccccc3N2)c2ccccc21 (centres undefined) | < 4.00 | 4.55 | < 4.00 | 4.30 | –
O=C1NC2(Nc3c(Br)cc(Br)cc31)C(=O)N(Cc1ccc(Cl)c(Cl)c1)c1ccccc12 (centres undefined) | 4.70 | 4.61 | < 4.00 | < 4.00 | –

Second part, led by results:

pIC50 (EBC-1) | pIC50 (HT-29) | pIC50 (A549) | pIC50 (K562 [1]) | Compound | further results
4.46 | < 4.00 | 4.34 | < 4.00 | O=C1NC2(Nc3c(Br)cc(Br)cc31)C(=O)N(Cc1ccc(F)cc1)c1ccccc12 (centres undefined) | –
4.61 | 4.28 | 4.33 | < 4.00 | CCCCCN1C(=O)C2(NC(=O)c3cc(Br)cc(Br)c3N2)c2ccccc21 (centres undefined) | –
4.41 | 4.14 | 4.40 | 4.70 | O=C1NC2(Nc3ccccc31)C(=O)N(Cc1ccc(Br)cc1)c1ccccc12 (centres undefined) | –
4.71 | < 4.00 | 4.34 | < 4.00 | CC(C)(C)c1ccc(CN2C(=O)C3(NC(=O)c4cc(Br)cc(Br)c4N3)c3ccccc32)cc1 (centres undefined) | –

Source: ChEMBL document CHEMBL5325463, “Novel spiroindoline quinazolinedione derivatives as anticancer agents and potential FLT3 kinase inhibitors” (Bioorg Med Chem, 2023)
